Experimental data from patent publication US10633407B2, “14-membered ketolides and methods of their preparation and use” (President and Fellows of Harvard College, priority 2014, dated 2020).
Values after ≈ are worked out from the molar mass of the structure shown.

Key:
Test in all cases: CLSI broth dilution MIC determination
Type in all cases: cell-based
S. pneumoniae ATCC 49619 = settings: S. pneumoniae ATCC 49619; Gram-positive
In short: (§1)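 Method: CLSI broth dilution; endpoint: MIC. Macrolide controls azithromycin and solithromycin added in many cases.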

S. aureus USA600, GISA = settings: S. aureus USA600, GISA; Gram-positive
In short: as §1

[1] = system: S. pneumoniae erm B + mef A genotype; settings: S. pneumoniae erm B + mef A genotype; Gram-positive
In short: as §1

S. aureus MRSA: USA100 = settings: S. aureus MRSA: USA100; Gram-positive
In short: as §1

E. coli TEM-1 = settings: E. coli TEM-1; Gram-negative
In short: as §1

K. pneumoniae TEM-10 = settings: Gram-negative
E. coli NDM-1 = settings: Gram-negative
In short: as §1

H. influenzae ATCC49247 = settings: Gram-negative
In short: as §1

[2] = system: S. pneumoniae mef A genotype (second strain so labelled); settings: Gram-positive
In short: as §1

E. coli ATCC 25922 = settings: E. coli ATCC 25922; Gram-negative
In short: as §1

E. coli CTX-M-14 = settings: Gram-negative
In short: as §1

S. aureus erm A genotype = settings: S. aureus erm A genotype; Gram-positive
In short: as §1

S. aureus ATCC 29213 = settings: S. aureus ATCC 29213; Gram-positive
In short: as §1

S. aureus MRSA: USA300 = settings: S. aureus MRSA: USA300; Gram-positive
In short: as §1

E. faecalis ATCC 29212 = settings: E. faecalis ATCC 29212; Gram-positive
[3] = system: E. faecalis Vancomycin-resistant; settings: E. faecalis Vancomycin-resistant; Gram-positive
K. pneumoniae SHV-12 = settings: Gram-negative
K. pneumoniae ATCC 10031 = settings: K. pneumoniae ATCC 10031; Gram-negative
A. baumannii IMP-4 = settings: Gram-negative
[4] = system: P. aeruginosa HPA101-1477; settings: Gram-negative
S. pyogenes ATCC 19615 = settings: S. pyogenes ATCC 19615; Gram-positive
K. pneumoniae KPC-2 = settings: Gram-negative
A. baumannii ATCC 19606 = settings: A. baumannii ATCC 19606; Gram-negative
[5] = system: S. pyogenes Macrolide-resistant; settings: S. pyogenes Macrolide-resistant; Gram-positive
P. aeruginosa ATCC 27853 = settings: P. aeruginosa ATCC 27853; Gram-negative
[6] = system: A. baumannii chromosomal class C; settings: Gram-negative
[7] = system: A. baumannii imipenem-resistant; settings: Gram-negative
[8] = system: H. influenzae Erythro >4, Azithro 1; settings: H. influenzae Erythro >4, Azithro 1; Gram-negative
From the text: MIC data was collected for the novel macrolides that this platform has produced against over 21 unique strains of B. subtilis, E. coli, S. aureus, S. pneumoniae, and H. influenzae, including several multidrug-resistant strains, with a special focus on macrolide resistant mechanisms (vide supra). […] CLSI standard procedures for broth dilution MIC determination were used. […] These genotypes can be constitutive or inducible.

Compound	MIC (S. pneumoniae ATCC 49619) [µg/mL]	MIC (S. aureus USA600, GISA) [µg/mL]	MIC [1] [µg/mL]	MIC (S. aureus MRSA: USA100) [µg/mL]	MIC (E. coli TEM-1) [µg/mL]	MIC (K. pneumoniae TEM-10) [µg/mL]	MIC (E. coli NDM-1) [µg/mL]	MIC (H. influenzae ATCC49247) [µg/mL]	MIC [2] [µg/mL]	MIC (E. coli ATCC 25922) [µg/mL]	MIC (E. coli CTX-M-14) [µg/mL]	MIC (S. aureus erm A genotype) [µg/mL]	MIC (S. aureus ATCC 29213) [µg/mL]	MIC (S. aureus MRSA: USA300) [µg/mL]	MIC (E. faecalis ATCC 29212) [µg/mL]	MIC [3] [µg/mL]	MIC (K. pneumoniae SHV-12) [µg/mL]	MIC (K. pneumoniae ATCC 10031) [µg/mL]	MIC (A. baumannii IMP-4) [µg/mL]	MIC [4] [µg/mL]	also measured
CC[C@H]1OC(=O)[C@@](C)(F)C(=O)[C@H](C)[C@@H](O[C@@H]2OC(C)CC(N(C)C)C2O)[C@](C)(OC)C[C@@H](C)C(=O)[C@H](C)[C@H]2N(C/C=C/Cn3cc(-c4nccs4)nn3)C(=O)O[C@]12C (stereo partly shown) [FSM-11562]	≤ 0.0312	> 32	0.25	> 32	16 (≈ 19.2 µM)	32 (≈ 38.3 µM)	> 32	4 (≈ 4.79 µM)	0.0625 (≈ 0.0748 µM)	16 (≈ 19.2 µM)	> 32	> 32	0.0625 (≈ 0.0748 µM)	1 (≈ 1.2 µM)	≤ 0.0312	> 32	> 32	4 (≈ 4.79 µM)	> 32	> 32	MIC (S. pyogenes ATCC 19615): ≤ 0.0312 µg/mL; MIC (K. pneumoniae KPC-2): > 32 µg/mL; MIC (A. baumannii ATCC 19606): 8 µg/mL (≈ 9.58 µM); MIC [5]: 0.125 µg/mL (≈ 0.15 µM); MIC (P. aeruginosa ATCC 27853): > 32 µg/mL; MIC [6]: 8 µg/mL (≈ 9.58 µM); MIC [7]: 8 µg/mL (≈ 9.58 µM); MIC [8]: 2 µg/mL (≈ 2.4 µM)
CC[C@H]1OC(=O)[C@H](C)C(=O)[C@H](C)[C@@H](O[C@@H]2OC(C)CC(N(C)C)C2O)[C@](C)(OC)C[C@@H](C)C(=O)[C@H](C)[C@H]2N(C/C=C/Cn3nnnc3-c3ccccn3)C(=O)O[C@]12C (stereo partly shown) [FSM-100376]	< 0.0312	> 32	0.25	> 32	16 (≈ 19.7 µM)	32 (≈ 39.4 µM)	> 32	1 (≈ 1.23 µM)	< 0.0312	8 (≈ 9.85 µM)	> 32	> 32	< 0.0312	8 (≈ 9.85 µM)	< 0.0312	> 32	> 32	8 (≈ 9.85 µM)	> 32	> 32	MIC (S. pyogenes ATCC 19615): < 0.0312 µg/mL; MIC (K. pneumoniae KPC-2): > 32 µg/mL; MIC (A. baumannii ATCC 19606): 16 µg/mL (≈ 19.7 µM); MIC [5]: < 0.0312 µg/mL; MIC (P. aeruginosa ATCC 27853): 32 µg/mL (≈ 39.4 µM); MIC [6]: 16 µg/mL (≈ 19.7 µM); MIC [7]: 32 µg/mL (≈ 39.4 µM); MIC [8]: 1 µg/mL (≈ 1.23 µM)
CC[C@H]1OC(=O)[C@H](C)C(=O)[C@H](C)[C@@H](O[C@@H]2OC(C)CC(N(C)C)C2O)[C@](C)(OC)C[C@@H](C)C(=O)[C@H](C)[C@H]2N(C/C=C/Cn3nnc(-c4ccccn4)n3)C(=O)O[C@]12C (stereo partly shown) [FSM-100371]	< 0.0312	> 32	0.25	> 32	> 32	> 32	> 32	2 (≈ 2.46 µM)	0.125 (≈ 0.154 µM)	> 32	> 32	> 32	< 0.0312	4 (≈ 4.93 µM)	< 0.0312	> 32	> 32	8 (≈ 9.85 µM)	> 32	> 32	MIC (S. pyogenes ATCC 19615): < 0.0312 µg/mL; MIC (K. pneumoniae KPC-2): > 32 µg/mL; MIC (A. baumannii ATCC 19606): 16 µg/mL (≈ 19.7 µM); MIC [5]: 0.0625 µg/mL (≈ 0.077 µM); MIC (P. aeruginosa ATCC 27853): > 32 µg/mL; MIC [6]: 32 µg/mL (≈ 39.4 µM); MIC [7]: > 32 µg/mL; MIC [8]: 2 µg/mL (≈ 2.46 µM)
CC[C@H]1OC(=O)[C@H](C)C(=O)[C@H](C)[C@@H](O[C@@H]2OC(C)CC(N(C)C)C2O)[C@](C)(OC)C[C@@H](C)C(=O)[C@H](C)[C@H]2N(C/C=C/Cn3cc(-c4nccs4)nn3)C(=O)O[C@]12C (stereo partly shown) [FSM-11559]	≤ 0.0312	> 32	1	> 32	32 (≈ 39.2 µM)	> 32	> 32	4 (≈ 4.9 µM)	0.125 (≈ 0.153 µM)	> 32	> 32	> 32	0.125 (≈ 0.153 µM)	4 (≈ 4.9 µM)	≤ 0.0312	> 32	> 32	4 (≈ 4.9 µM)	> 32	> 32	MIC (S. pyogenes ATCC 19615): ≤ 0.0312 µg/mL; MIC (K. pneumoniae KPC-2): > 32 µg/mL; MIC (A. baumannii ATCC 19606): 16 µg/mL (≈ 19.6 µM); MIC [5]: 0.125 µg/mL (≈ 0.153 µM); MIC (P. aeruginosa ATCC 27853): > 32 µg/mL; MIC [6]: 16 µg/mL (≈ 19.6 µM); MIC [7]: 32 µg/mL (≈ 39.2 µM); MIC [8]: 4 µg/mL (≈ 4.9 µM)
